In patent US8802664B2 (Bioproject, priority 2010, dated 2014):

Biological target: T1, human H4 receptor (Homo sapiens, UniProt Q9H3N8)
T1 construct: expressed in transfected cells
Test: [3H]Histamine binding on membranes of CHO cells stably expressing human H4 receptor
Experimental: CHO cells stably expressing human H4 receptor were grown until sub-confluence and centrifuged at 300 g 15 minutes at 4° C. Pellets were resuspended in buffer I Tris-HCl 50 mM, MgCl2 10 mM, NaCl 140 mM, pH=7.4 supplemented by a 1/50 dilution of a mix of protease inhibitors. The obtained suspension is stirred gently and submitted to a […] exerted through a syringe. The cell lysate is then centrifuged at 300 g 15 minutes at 4° C. in order to eliminate nucleus and cell scraps. The obtained supernatant was then centrifuged at 48000 g for 30 minutes at 4° C. The final pellet is resuspended in buffer I with a potter homogenizer. Aliquots were frozen in liquid nitrogen and stored until use at −80° C. Protein content is measured by the Bradford method.
Defreezed membranes were diluted at a final concentration of 20 μg/180 μL/well in a binding buffer containing 50 mM Tris/HCl, 0.5 mM EDTA, pH=7.4 and distributed in 96 well polystyrene microplate. [^3H] […] Non specific binding was estimated in the presence of 10 μM BP1.2404 (JNJ 7777120). The reaction was terminated by filtration through GF/B filters pre-soaked 2 hours at 4° C. in […]. Filters were rinsed 3 times with 250 μl of ice cold incubation binding buffer.
The filter-bound radioactivity was measured in a liquid scintillation counter Microbeta TRILUX® with 50 μl of scintillation fluid.
The hH4 binding investigated by use of [^3H]

T1 sequence (Q9H3N8 whole entry): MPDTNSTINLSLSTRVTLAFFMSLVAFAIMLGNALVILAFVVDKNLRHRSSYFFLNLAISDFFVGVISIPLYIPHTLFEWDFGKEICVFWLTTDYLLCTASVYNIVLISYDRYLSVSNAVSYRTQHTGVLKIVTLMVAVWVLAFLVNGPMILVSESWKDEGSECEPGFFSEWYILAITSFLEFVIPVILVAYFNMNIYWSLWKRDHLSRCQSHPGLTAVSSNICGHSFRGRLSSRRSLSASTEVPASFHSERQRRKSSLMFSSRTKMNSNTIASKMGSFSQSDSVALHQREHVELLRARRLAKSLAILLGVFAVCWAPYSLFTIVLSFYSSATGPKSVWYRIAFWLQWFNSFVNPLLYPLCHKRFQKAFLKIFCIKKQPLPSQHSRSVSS

Row | Structure (SMILES) | Ki or IC50 activity class
1 | CCCOc1ccc(F)c(C(OC2CCN(C)CC2)c2nc3ccccc3[nH]2)c1 (stereo not shown) [Example 519] | < 0.03 µM
2 | CN1CCC(OC(c2cccc(C#CCCCNC(=N)N)c2)c2nc3ccccc3[nH]2)CC1 (stereo not shown) [Example 358, N-(5-{3-[(1H-benzimidazol-2-yl)(1-methylpiperidin-4-yloxy)methyl]phenyl}pent-4-ynyl)guanidine] | < 0.03 µM
3 | CN1CCC(OC(c2cccc(CCCCO)c2)c2nc3ccccc3s2)CC1 (stereo not shown) [Example 238, 4-{3-[benzothiazol-2-yl(1-methylpiperidin-4-yloxy)methyl]phenyl}butan-1-ol] | < 1 µM
4 | CN1CCC(OC(c2ccc(N)cc2)c2nc3ccccc3[nH]2)CC1 (stereo not shown) [Example 455, 4-[(1H-benzimidazol-2-yl)(1-methylpiperidin-4-yloxy)methyl]aniline] | < 0.03 µM
5 | CNCCOc1cccc(C(OC2CCN(C)CC2)c2nc3ccccc3s2)c1 (stereo not shown) [Example 279, (2-{3-[benzothiazol-2-yl(1-methylpiperidin-4-yloxy)methyl]phenoxy}ethyl)methyl-amine] | < 1 µM
6 | CN1CCC(OC(c2cccc(SCCCCCN)c2)c2nc3ccccc3[nH]2)CC1 (stereo not shown) [Example 381, 5-{3-[(1H-benzimidazol-2-yl)(1-methylpiperidin-4-yloxy)methyl]phenylsulfanyl}pentylamine] | < 0.03 µM
7 | CN1CCC(OC(c2cccc(Br)c2)c2nc3ccccc3[nH]2)CC1 (stereo not shown) [Example 78, 2-[(3-bromophenyl)(1-methylpiperidin-4-yloxy)methyl]-1H-benzimidazole] | < 0.3 µM
8 | Cc1ccc(C(OC2CCN(C)CC2)c2nc3ccccc3[nH]2)c(F)c1 (single isomer, unassigned) [Example 533, 2-[(2-fluoro-4-methylphenyl)(1-methylpiperidin-4-yloxy)methyl]-1H-benzimidazole] | < 0.03 µM
9 | CN1CCC(OC(c2ccc3ccsc3c2)c2nc3ccccc3[nH]2)CC1 (stereo not shown) [Example 556, 2-[benzo[b]thiophen-6-yl(1-methylpiperidin-4-yloxy)methyl]-1H-benzimidazole] | < 0.03 µM
10 | CN1CCC(OC(c2cccc(SCCCNC(=N)N)c2)c2nc3ccccc3[nH]2)CC1 (stereo not shown) [Example 441, N-(3-{3-[(1H-benzimidazol-2-yl)(1-methylpiperidin-4-yloxy)methyl]phenylsulfanyl}propyl)guanidine] | < 0.03 µM
11 | CN1CCC(OC(c2cccc(SCC(=O)NCCN)c2)c2nc3cc(F)ccc3[nH]2)CC1 (stereo not shown) [Example 459] | < 0.03 µM
12 | CN1CCC(OC(c2cccc(C=CS(C)(=O)=O)c2)c2nc3ccccc3s2)CC1 (stereo not shown) [Example 212, 2-[[3-(2-methanesulfonylvinyl)phenyl](1-methylpiperidin-4-yloxy)methyl]benzothiazole] | < 1 µM
13 | CN1CCC(OC(c2cccc(SC(C)(C)CCO)c2)c2nc3ccccc3s2)CC1 (stereo not shown) [Example 242, 3-{3-[benzothiazol-2-yl(1-methylpiperidin-4-yloxy)methyl]phenylsulfanyl}-3-methyl-butan-1-ol] | < 1 µM
14 | CN1CCC(OC(c2cccc(C#CCCCCNC(=N)N)c2)c2nc3ccccc3[nH]2)CC1 (stereo not shown) [Example 346, N-(6-{3-[(1H-benzimidazol-2-yl)(1-methylpiperidin-4-yloxy)methyl]phenyl}hex-5-ynyl)guanidine] | < 0.3 µM
15 | COc1cccc(C(OC2CCN(C)CC2)c2nc3ccccc3s2)c1 (stereo not shown) [Example 11, 2-[(3-methoxyphenyl)(1-methylpiperidin-4-yloxy)methyl]benzothiazole] | < 0.03 µM
16 | CN1CCC(OC(c2cccc(-c3cccc([N+](=O)[O-])c3)c2)c2nc3ccccc3s2)CC1 (stereo not shown) [Example 97, 2-[(1-methylpiperidin-4-yloxy)(3′-nitrobiphenyl-3-yl)methyl]benzothiazole] | < 0.3 µM
17 | CC(=O)c1ccc(-c2cccc(C(OC3CCN(C)CC3)c3nc4ccccc4[nH]3)c2)cc1 (stereo not shown) [Example 108, 1-{3′-[(1H-benzimidazol-2-yl)(1-methylpiperidin-4-yloxy)methyl]biphenyl-4-yl}ethanone] | < 0.3 µM
18 | CN1CCC(OC(c2cccc(SCCn3ccnn3)c2)c2nc3ccccc3s2)CC1 (stereo not shown) [Example 241, 2-{(1-methylpiperidin-4-yloxy)[3-(2-[1,2,3]triazol-1-yl-ethylsulfanyl)phenyl]methyl}benzothiazole] | < 0.3 µM
19 | CN1CCC(OC(c2cccc(C=CCCCO)c2)c2nc3ccccc3s2)CC1 (stereo not shown) [Example 390, 5-{3-[(benzothiazol-2-yl)(1-methylpiperidin-4-yloxy)methyl]phenyl}pent-4-en-1-ol] | < 0.03 µM

Row | Structure (SMILES) | Ki or IC50 activity class
20 | CN1CCC(OC(c2ccc3c(c2)CCO3)c2nc3ccccc3s2)CC1 (stereo not shown) [Example 32, 2-[(2,3-dihydrobenzofuran-5-yl)(1-methylpiperidin-4-yloxy)methyl]benzothiazole] | < 0.3 µM
21 | CN1CCC(OC(c2cccc(C#CCCCNC(=N)NC(=O)OC(C)(C)C)c2)c2nc3ccccc3[nH]2)CC1 (stereo not shown) [Example 357, N-tert-butoxycarbonyl-N′-(5-{3-[(1H-benzimidazol-2-yl)(1-methylpiperidin-4-yloxy)methyl]phenyl}pent-4-ynyl)guanidine] | < 0.3 µM
22 | CN1CCC(OC(c2cccc(-c3cccnc3)c2)c2nc3ccccc3s2)CC1 (stereo not shown) [Example 63, 2-[(1-methylpiperidin-4-yloxy)(3-pyridin-3-ylphenyl)methyl]benzothiazole] | < 0.3 µM
23 | COc1ccccc1-c1cccc(C(OC2CCN(C)CC2)c2nc3ccccc3s2)c1 (stereo not shown) [Example 96, 2-[(2′-methoxybiphenyl-3-yl)(1-methylpiperidin-4-yloxy)methyl]benzothiazole] | < 0.3 µM
24 | CN1CCC(OC(c2cccc(-c3cccc(CC#N)c3)c2)c2nc3ccccc3s2)CC1 (stereo not shown) [Example 98, {3′-[benzothiazol-2-yl(1-methylpiperidin-4-yloxy)methyl]biphenyl-3-yl}acetonitrile] | < 0.3 µM
25 | CN1CCC(OC(c2cccc(OCCCCN)c2)c2nc3ccccc3s2)CC1 (stereo not shown) [Example 301, 4-{3-[benzothiazol-2-yl(1-methylpiperidin-4-yloxy)methyl]phenoxy}butylamine] | < 0.03 µM
26 | COc1cc(F)cc(C(OC2CCN(C)CC2)c2nc3ccccc3s2)c1 (stereo not shown) [Example 40, 2-[(3-fluoro-5-methoxyphenyl)(1-methylpiperidin-4-yloxy)methyl]benzothiazole] | < 0.03 µM
27 | CN1CCC(NC(c2cccc(OCc3ccccc3F)c2)c2nc3ccccc3[nH]2)CC1 (stereo not shown) [Example 113, {(1H-benzimidazol-2-yl)[3-(2-fluorobenzyloxy)phenyl]methyl}(1-methylpiperidin-4-yl)amine] | < 0.03 µM
28 | CN1CCC(OC(c2cccc(C#N)c2)c2nc3ccccc3s2)CC1 (stereo not shown) [Example 197, 3-[benzothiazol-2-yl(1-methylpiperidin-4-yloxy)methyl]benzonitrile] | < 0.03 µM
29 | CN1CCC(NC(c2cccc(I)c2)c2nc3ccccc3s2)CC1 (stereo not shown) [Example 48, [benzothiazol-2-yl(3-iodophenyl)methyl](1-methylpiperidin-4-yl)amine] | < 0.3 µM
30 | Cc1ccc(C(OC2CCN(C)CC2)c2nc3ccccc3[nH]2)c(F)c1 (stereo not shown) [Example 513] | < 0.03 µM
31 | CCCOc1cccc(C(NC2CCN(C)CC2)c2nc3ccccc3s2)c1 (single isomer, unassigned) [Example 57, [benzothiazol-2-yl(3-propoxyphenyl)methyl](1-methylpiperidin-4-yl)amine] | < 0.03 µM
32 | Cc1ccc(C(NC2CCN(C)CC2)c2nc3ccccc3s2)cc1 (stereo not shown) [Example 36, (benzothiazol-2-yl-p-tolylmethyl)(1-methylpiperidin-4-yl)amine] | < 0.3 µM
33 | CN1CCC(OC(c2cccc(CCCCCCN)c2)c2nc3ccccc3s2)CC1 (stereo not shown) [Example 325, 6-{3-[benzothiazol-2-yl(1-methylpiperidin-4-yloxy)methyl]phenyl}hexylamine] | < 0.03 µM
34 | CN1CCC(OC(c2cccc(C#CCCCn3ccnn3)c2)c2nc3ccccc3[nH]2)CC1 (stereo not shown) [Example 417, 2-{(1-methylpiperidin-4-yloxy)[3-(5-[1,2,3]triazol-1-ylpent-1-ynyl)phenyl]methyl}-1H-benzimidazole] | < 1 µM
35 | CN1CCC(OC(c2cccc(-c3ccc(F)cc3)c2)c2nc3ccccc3s2)CC1 (stereo not shown) [Example 136, 2-[(4′-fluorobiphenyl-3-yl)(1-methylpiperidin-4-yloxy)methyl]benzothiazole] | < 0.3 µM
36 | CN1CCC(OC(c2cccc(CCCCCNC(=N)NC(=O)OC(C)(C)C)c2)c2nc3ccccc3[nH]2)CC1 (stereo not shown) [Example 335, N-tert-butoxycarbonyl-N′-(-{3-[(1H-benzimidazol-2-yl)(1-methylpiperidin-4-yloxy)methyl]phenyl}pentyl)guanidine] | < 0.3 µM
37 | Cc1ccc(C(OC2CCN(C)CC2)c2nc3ccccc3[nH]2)c(Cl)c1 (stereo not shown) [Example 213, 2-[(2-chloro-4-methylphenyl)(1-methylpiperidin-4-yloxy)methyl]-1H-benzimidazole] | < 0.3 µM
